The conditions of series [1]: cited from earlier work.
Series [2] can be described thus: Pharmacokinetic study, intravenous administration of aqueous solution of Working Example 1. The settings on record: i.v.; for C0 / AUC(0-t): Sprague-Dawley IGS, rat, blood, iv, average of three; for AUC(0-t): read-out: AUC0-24. In kind it is in vivo, Sprague-Daweley IGS rats. The text has this:
The aqueous solution obtained in Working Example 1 was filtered and sterilized with Millex (registered trademark)-GV (0.22 μm; available from Millipore Japan Corporation/Merck Millipore Corporation) and intravenously administered to female and male Sprague-Daweley IGS rats (6 weeks old) to investigate the pharmacokinetics of Compound (I).
As groups of animals, female and male Sprague-Daweley IGS rats (available from Charles River Laboratories Japan, Inc.) were used. The rats were 6 weeks old. The male rats had body weights of 166 to 189 g, and the female rats had body weights of 123 to 145 g.
The rats were quarantined and acclimated in a SPF (specific pathogen free) laboratory for animal experimentations for seven days, and their states of health were simultaneously observed. Each of the rats was kept in a sterilized stainless cage. In the SPF laboratory for animal experimentations, the temperature was maintained at 20.6 to 22.5° C., and the relative humidity was maintained at 44 to 60%. In the SPF laboratory for animal experimentations, ventilation was provided fifteen times per hour. Regarding illumination in the SPF laboratory for animal experimentations, a bright state and a dark state were switched every 12 hours.
As foods for rats, a standard dry food in stick-shape (whose components were already analyzed) was used. As drinking water, tap water which was confirmed to be within a range of the reference value was used, and the rats were allowed to freely drink it.
The above-mentioned quarantined rats were randomly divided into the following three groups (four female rats and four male rats per group) by weight.
(1) Group 1: the aqueous solution obtained in Working Example 1 was administered in a dose of 1 mL/kg.
(2) Group 2: the aqueous solution obtained in Working Example 1 was administered in a dose of 2 mL/kg.
(3) Group 3: the aqueous solution obtained in Working Example 1 was administered in a dose of 3 mL/kg.
After the quarantined rats fasted overnight (for about 16 hours), the aqueous solution obtained in Working Example 1 was intravenously administered. Blood was collected 0.083 hours, 0.25 hours, 0.5 hours, 1 hour, 4 hours, and 24 hours after the administration, and the concentration of Compound (I) in the blood was measured. The maximum blood concentration, C0 (ng/mL), just after the composition for injection was intravenously administered, and the area under the blood concentration-time curve of Compound (I) over 0 to 24 hours after the administration, AUC0-24 (ng·h/mL), were calculated from the measured concentrations of Compound (I) in the blood at the collection times.

The mark [3] stands for this setting: female rats, aqueous solution of Working Example 1, dose of Compound (I) 1 mg/kg (Group 1).
[4] abbreviates: female rats, aqueous solution of Working Example 1, dose of Compound (I) 2 mg/kg (Group 2).
Setting [5] is: female rats, aqueous solution of Working Example 1, dose of Compound (I) 3 mg/kg (Group 3).
The mark [6] stands for this setting: male rats, aqueous solution of Working Example 1, dose of Compound (I) 1 mg/kg (Group 1).
Setting [7] is: male rats, aqueous solution of Working Example 1, dose of Compound (I) 2 mg/kg (Group 2).
[8] abbreviates: male rats, aqueous solution of Working Example 1, dose of Compound (I) 3 mg/kg (Group 3).

The structures appear in SMILES notation. Where two headings read alike, the source gives them in different places.

With `O=C(Nc1cc(C(F)(F)F)cc(C(F)(F)F)c1)c1cc(Cl)ccc1O` [Compound (I), N-[3,5-bis(trifluoromethyl)phenyl]-5-chloro-2-hydroxybenzamide], the Water solubility result in series [1] is “poor water solubility”. In addition, the C0 came out at 2150 ng/mL in series [2] (setting [3]); 2820 ng/mL in series [2] (setting [4]); 5250 ng/mL in series [2] (setting [5]); 1380 ng/mL in series [2] (setting [6]); 3210 ng/mL in series [2] (setting [7]); 4850 ng/mL in series [2] (setting [8]). In addition, the AUC(0-t) worked out at 388 ng·h/mL in series [2] (setting [3]); 540 ng·h/mL in series [2] (setting [4]); 981 ng·h/mL in series [2] (setting [5]); 304 ng·h/mL in series [2] (setting [6]); 620 ng·h/mL in series [2] (setting [7]); 1260 ng·h/mL in series [2] (setting [8]). Moreover, in series [2] (rats, aqueous solution of Working Example 1, 1 to 3 mL/kg), the “Exposure of Compound (I) in vivo” value is “exposed in a dose-dependent manner and in a sufficient amount”.

Source of the values: US9974860B2, “Aqueous solution formulation and method for manufacturing same” (Akiko ITAI, priority 2013, dated 2018).
